Assay results: patent publication US8470820B2, “Nitrogen-containing heteroaryl derivatives” (Hoffman-La Roche Inc., priority 2010, dated 2013)

What was measured:
[1] = target: human PDE10A (Homo sapiens (Human), UniProt Q9Y233); assay: human PDE10A full length Scintillation Proximity Assay (SPA); type: biochemical; conditions: 50 nM cGMP and 50 nM [3H]-cGMP, 20 minutes at room temperature, read-out: PDE10A inhibition IC50
Procedure: The following test was carried out in order to determine the activity of the compounds of the present invention. PDE10 activity of the compounds of the present invention was determined using a Scintillation Proximity Assay (SPA)-based method similar to the one previously described (Fawcett, L. et al., Proc Natl Acad Sci USA (2000) 97(7):3702-3707).
The human PDE10A full length assay was performed in 96-well micro titer plates. The reaction mixture of 50 μl contained 20 mM HEPES pH=7.5/10 mM MgCl2/0.05 mg/ml BSA (Sigma cat. # A-7906), 50 nM cGMP (Sigma, cat. # G6129) and 50 nM [^3H]-cGMP (GE Healthcare, cat. # TRK392 S.A. 13.2Ci/mmol), 3.75 ng/well PDE10A enzyme (Enzo Life Science, Lausen, Switzerland cat # SE-534) with or without a specific test compound. A range of concentrations of the potential inhibitor was used to generate data for calculating the concentration of inhibitor resulting in 50% of the effect (e.g. IC50, the concentration of the competitor inhibiting PDE10A activity by 50%). Non-specific activity was tested without the enzyme. The reaction was initiated by the addition of the substrate solution (cGMP and [^3H]-cGMP) and allowed to progress for 20 minutes at room temperature. The reaction was terminated by adding 25 μA of YSi-SPA scintillation beads (GE Healthcare, cat. # RPNQ0150) in 18 mM zinc sulphate solution (stop reagent). After 1 h under shaking, the plate was centrifuged one minute at 170 g to allow beads to settle. Afterwards, radioactive counts were measured on a Perkin Elmer TopCount Scintillation plate reader.

[2] = test system: rats; conditions: sub-chronic treatment with PCP (NMDA receptor hypofunction paradigm); cited from earlier work

Sequence of human PDE10A (Q9Y233 other isoform, or with tags, fused parts or gaps): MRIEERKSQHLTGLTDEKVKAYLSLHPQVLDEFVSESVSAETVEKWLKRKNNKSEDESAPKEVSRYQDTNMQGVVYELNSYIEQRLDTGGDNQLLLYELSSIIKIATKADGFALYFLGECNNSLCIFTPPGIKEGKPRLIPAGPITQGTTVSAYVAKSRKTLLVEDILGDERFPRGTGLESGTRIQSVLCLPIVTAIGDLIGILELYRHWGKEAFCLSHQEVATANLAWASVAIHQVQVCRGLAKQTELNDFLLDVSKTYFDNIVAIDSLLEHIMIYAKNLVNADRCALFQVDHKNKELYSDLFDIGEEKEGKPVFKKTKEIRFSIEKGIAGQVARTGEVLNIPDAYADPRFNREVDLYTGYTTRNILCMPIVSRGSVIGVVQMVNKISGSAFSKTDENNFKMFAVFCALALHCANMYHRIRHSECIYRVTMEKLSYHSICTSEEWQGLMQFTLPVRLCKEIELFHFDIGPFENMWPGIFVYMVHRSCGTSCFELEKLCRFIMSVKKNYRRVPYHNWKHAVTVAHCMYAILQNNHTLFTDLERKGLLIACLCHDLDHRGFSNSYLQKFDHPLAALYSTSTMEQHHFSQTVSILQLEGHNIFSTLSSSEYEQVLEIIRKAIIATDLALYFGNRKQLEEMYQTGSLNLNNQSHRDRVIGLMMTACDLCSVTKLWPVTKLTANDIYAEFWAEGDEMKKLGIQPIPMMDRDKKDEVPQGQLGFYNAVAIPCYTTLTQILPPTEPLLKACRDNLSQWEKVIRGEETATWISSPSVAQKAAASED

**Q.** Which IC50 [1] does the source give for `O=C(Nc1nnc(-c2ccccn2)o1)c1nc(C2CC2)ccc1Nc1cncnc1` [Example 64, 6-Cyclopropyl-3-(pyrimidin-5-ylamino)-pyridine-2-carboxylic acid (5-pyridin-2-yl-[1,3,4]oxadiazol-2-yl)-amide] here?
**A.** Its IC50 is 2.04 µM.

**Q.** Which IC50 [1] does the source give for `O=C(Nc1cnn(-c2ccccn2)c1)c1nc(C2CC2)ccc1Nc1cncnc1` [Example 65, 6-Cyclopropyl-3-(pyrimidin-5-ylamino)-pyridine-2-carboxylic acid (1-pyridin-2-yl-1H-pyrazol-4-yl)-amide] here?
**A.** Its IC50 is 0.055 µM.

**Q.** For `O=C(Nc1cn(-c2ccccn2)cn1)c1nc(C2CC2)cnc1Nc1cncnc1` [Example 66, 6-Cyclopropyl-3-(pyrimidin-5-ylamino)-pyrazine-2-carboxylic acid (1-pyridin-2-yl-1H-imidazol-4-yl)-amide], which IC50 [1] is on record?
**A.** Its IC50 is 0.187 µM.

**Q.** For `COc1ccc(Cc2nccc3cc(OC)c(OC)cc23)cc1OC` [papaverine, Papaverine], which “effect on deficits in extra-dimensional shift learning” value [2] is on record?
**A.** Its value is “attenuate the deficits in the extra-dimensional shift learning”.
